Measurements reported in ChEMBL document CHEMBL1201862, “PubChem BioAssay data set” (2004).
The source made the active and inactive calls.

Assays:
[1] = molecular target: T1, Ubiquitin-conjugating enzyme E2 N (Homo sapiens, UniProt P61088); format: functional
T1 sequence (P61088 whole entry): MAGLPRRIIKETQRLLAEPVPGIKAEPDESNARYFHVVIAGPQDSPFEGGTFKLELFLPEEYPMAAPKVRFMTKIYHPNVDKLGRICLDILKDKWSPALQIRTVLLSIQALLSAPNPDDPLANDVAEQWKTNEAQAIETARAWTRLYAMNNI

[2] = molecular target: T1, Ubiquitin-conjugating enzyme E2 N; format: functional; remark: listed apart in the source
[3] = molecular target: T2, Bcl-2-related protein A1 (Mus musculus, UniProt Q07440); format: functional;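 also: confirmatory dose–response counterscreen on Bfl-1, used to check hits from a UBC13 polyubiquitin inhibitor campaign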
T2 sequence (Q07440 whole entry): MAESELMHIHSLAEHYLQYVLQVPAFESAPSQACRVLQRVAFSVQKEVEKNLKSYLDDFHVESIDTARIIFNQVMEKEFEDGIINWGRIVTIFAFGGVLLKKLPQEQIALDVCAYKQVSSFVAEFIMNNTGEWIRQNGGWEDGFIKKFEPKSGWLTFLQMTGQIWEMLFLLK

[4] = molecular target: T3, Microphthalmia-associated transcription factor (Homo sapiens, UniProt O75030); test: TRPM1 promoter luciferase signal decrease, dose response, MITF inhibitor project, cell-based, SK-MEL-5, cherry-picked, set 3 (AID 493073); format: functional
T3 sequence (O75030 whole entry): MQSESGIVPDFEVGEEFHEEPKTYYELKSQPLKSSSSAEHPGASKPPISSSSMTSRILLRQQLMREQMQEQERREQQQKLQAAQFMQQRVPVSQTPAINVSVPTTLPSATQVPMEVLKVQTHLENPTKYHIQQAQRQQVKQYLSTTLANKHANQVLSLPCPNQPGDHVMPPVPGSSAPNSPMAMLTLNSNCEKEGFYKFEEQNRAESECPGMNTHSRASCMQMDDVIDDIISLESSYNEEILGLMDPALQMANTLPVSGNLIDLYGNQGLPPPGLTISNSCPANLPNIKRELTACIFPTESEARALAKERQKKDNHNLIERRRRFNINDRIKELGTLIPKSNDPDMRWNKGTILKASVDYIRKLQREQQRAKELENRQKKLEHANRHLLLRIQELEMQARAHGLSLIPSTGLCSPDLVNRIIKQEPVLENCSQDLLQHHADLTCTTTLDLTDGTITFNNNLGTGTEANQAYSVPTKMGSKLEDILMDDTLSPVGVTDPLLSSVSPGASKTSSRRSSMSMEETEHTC

[5] = tested on: H9c2; test: cells; format: functional, cell-based; conditions: Rattus norvegicus, H9c2, Myocardium;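 also: confirmatory concentration-response retest of ultra-high-throughput screening hits for modulation of myocardial damage; cell death induced by hydrogen peroxide oxidative stress; compound pretreatment for 60 min then peroxide exposure for 2 h; potency is for protecting the cells against peroxide damage rather than for killing them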
[6] = cytotoxicity toward NIH3T3 fibroblasts, dose response, counter-screen, cell-based, ATP luminescence, mouse fibroblasts (AID 2010); format: functional;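 also: cells exposed to compound for about 90 hours before reading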
[7] = tested on: Vero; test: cells; format: functional; conditions: Chlorocebus sabaeus
[8] = inhibitors of intracellular T. cruzi replication, confirmation, NIH3T3 host cells, beta-gal luminescence (AID 2044); format: functional, cell-based;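 also: intracellular parasites grown in NIH/3T3 mouse fibroblasts as host cells; luminescent beta-galactosidase reporter signal from transgenic T. cruzi replicating inside host cells; inhibitors lower the luminescence signal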
[9] = molecular target: T4, Protein RecA (Mycobacterium tuberculosis, UniProt P9WHJ3); test: Fluorescence Cell-Free Homogeneous Dose Retest to Identify Inhibitors of RecA-Intein Splicing Activity. [Related pubchem assays (depositor defined):AID2097, AID2223, AID489010, AID492950]; format: functional
T4 sequence (P9WHJ3 whole entry): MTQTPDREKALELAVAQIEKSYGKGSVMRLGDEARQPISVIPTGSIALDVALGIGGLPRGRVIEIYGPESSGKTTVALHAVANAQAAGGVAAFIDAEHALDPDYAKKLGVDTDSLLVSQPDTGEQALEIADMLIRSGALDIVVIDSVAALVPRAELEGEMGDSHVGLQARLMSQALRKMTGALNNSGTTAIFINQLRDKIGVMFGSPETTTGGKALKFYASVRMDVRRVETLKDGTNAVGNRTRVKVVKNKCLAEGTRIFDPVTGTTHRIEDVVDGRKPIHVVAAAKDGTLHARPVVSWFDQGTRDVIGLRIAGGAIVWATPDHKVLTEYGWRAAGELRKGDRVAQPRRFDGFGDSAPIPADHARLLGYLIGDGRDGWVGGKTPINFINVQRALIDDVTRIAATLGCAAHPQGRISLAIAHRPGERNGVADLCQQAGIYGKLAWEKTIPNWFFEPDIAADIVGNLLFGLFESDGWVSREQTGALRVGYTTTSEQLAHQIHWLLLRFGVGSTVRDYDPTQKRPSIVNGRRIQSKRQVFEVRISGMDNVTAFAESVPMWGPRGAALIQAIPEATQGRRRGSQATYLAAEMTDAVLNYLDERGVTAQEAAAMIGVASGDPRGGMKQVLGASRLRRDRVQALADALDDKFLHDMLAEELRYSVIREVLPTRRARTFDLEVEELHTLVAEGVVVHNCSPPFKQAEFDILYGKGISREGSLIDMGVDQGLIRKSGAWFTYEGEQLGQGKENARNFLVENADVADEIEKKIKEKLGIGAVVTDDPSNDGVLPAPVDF

[10] = tested on: BJ; test: cells; format: functional, cell-based; conditions: Homo sapiens
[11] = molecular target: T5, Replicative DNA helicase DnaB (Mycobacterium tuberculosis, UniProt P9WMR3); test: DnaB intein splicing inhibitors, dose response, biochemical, cell-free fluorescence (AID 449749); format: functional
T5 sequence (P9WMR3 whole entry): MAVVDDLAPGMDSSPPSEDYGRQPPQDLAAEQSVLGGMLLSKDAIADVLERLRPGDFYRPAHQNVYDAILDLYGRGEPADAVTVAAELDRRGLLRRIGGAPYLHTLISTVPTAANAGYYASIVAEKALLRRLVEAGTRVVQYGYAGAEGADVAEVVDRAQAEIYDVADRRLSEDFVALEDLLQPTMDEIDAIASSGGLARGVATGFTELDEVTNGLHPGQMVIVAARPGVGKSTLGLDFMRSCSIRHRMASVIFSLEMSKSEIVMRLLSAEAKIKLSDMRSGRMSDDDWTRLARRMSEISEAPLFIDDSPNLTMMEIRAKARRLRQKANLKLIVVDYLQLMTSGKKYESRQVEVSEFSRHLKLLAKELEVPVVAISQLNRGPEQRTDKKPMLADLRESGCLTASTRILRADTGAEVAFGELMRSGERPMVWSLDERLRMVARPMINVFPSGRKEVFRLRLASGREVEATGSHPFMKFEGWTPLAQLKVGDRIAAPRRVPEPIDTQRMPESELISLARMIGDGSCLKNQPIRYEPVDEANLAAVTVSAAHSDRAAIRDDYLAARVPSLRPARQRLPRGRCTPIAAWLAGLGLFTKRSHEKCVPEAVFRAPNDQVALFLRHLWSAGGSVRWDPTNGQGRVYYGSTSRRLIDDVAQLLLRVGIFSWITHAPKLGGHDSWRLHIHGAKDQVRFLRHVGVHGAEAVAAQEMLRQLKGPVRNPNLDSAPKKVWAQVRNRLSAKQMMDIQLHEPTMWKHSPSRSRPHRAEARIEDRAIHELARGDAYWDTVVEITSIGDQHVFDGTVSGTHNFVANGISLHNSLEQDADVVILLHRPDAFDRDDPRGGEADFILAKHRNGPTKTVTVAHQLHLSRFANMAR

[12] = tested on: BJ; test: cytotoxicity toward BJ-TERT-LT-ST fibroblasts, dose response, cell-based, RAS-independent, luminescence (AID 1935); format: functional; conditions: Homo sapiens;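 also: BJ fibroblasts immortalized with TERT plus LT and ST oncogenes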
[13] = tested on: BJ; test: cytotoxicity toward BJ-TERT fibroblasts, dose response, cell-based, RAS-independent, luminescence (AID 1933); format: functional; conditions: Homo sapiens
[14] = tested on: Vero; test: cells; format: functional, cell-based; conditions: Chlorocebus sabaeus
[15] = cytotoxicity toward DRD oncogenic fibroblasts, dose response, cell-based, non-viral oncogenic, luminescence (AID 1934); format: functional; conditions: Homo sapiens
[16] = tested on: BJ; test: cytotoxicity toward Ras-transformed BJeLR fibroblasts, dose response, cell-based, alamar blue fluorescence, cherrypicked samples (AID 2631); format: functional; conditions: Homo sapiens;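 also: confirmatory dose-response assay in RAS-dependent BJ fibroblasts engineered with TERT, LT and ST, with cytotoxicity read by fluorescence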
[17] = Luminescence Cell-Based Dose Retest to Confirm Inhibitors of Cancer Stem Cells. [Related pubchem assays (depositor defined):AID2717, AID2721]; format: functional; conditions: Homo sapiens
[18] = molecular target: Paired box protein Pax-8 (Homo sapiens, UniProt Q06710); test: inhibitors of PAX8-driven TPO luciferase reporter, dose response, RMG-I cells, cherry-pick (AID 687027); format: functional, cell-based;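 also: luciferase reporter driven by Pax8 target thyroperoxidase promoter measured by SteadyGlo luminescence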
[19] = molecular target: T6, Heat shock factor protein 1 (Mus musculus, UniProt P38532); test: HSF1 potentiators in luciferase reporter cells, confirmation, cell-based, NIH3T3, luminescence, dose retest (AID 435004); format: functional;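 also: stress induced by proteasome inhibitor MG132 added 30 min after compound; luciferase reporter driven by HSF1 response element in NIH3T3 cells; actives raise luminescence as potentiators of the MG132 stress response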
T6 sequence (P38532 whole entry): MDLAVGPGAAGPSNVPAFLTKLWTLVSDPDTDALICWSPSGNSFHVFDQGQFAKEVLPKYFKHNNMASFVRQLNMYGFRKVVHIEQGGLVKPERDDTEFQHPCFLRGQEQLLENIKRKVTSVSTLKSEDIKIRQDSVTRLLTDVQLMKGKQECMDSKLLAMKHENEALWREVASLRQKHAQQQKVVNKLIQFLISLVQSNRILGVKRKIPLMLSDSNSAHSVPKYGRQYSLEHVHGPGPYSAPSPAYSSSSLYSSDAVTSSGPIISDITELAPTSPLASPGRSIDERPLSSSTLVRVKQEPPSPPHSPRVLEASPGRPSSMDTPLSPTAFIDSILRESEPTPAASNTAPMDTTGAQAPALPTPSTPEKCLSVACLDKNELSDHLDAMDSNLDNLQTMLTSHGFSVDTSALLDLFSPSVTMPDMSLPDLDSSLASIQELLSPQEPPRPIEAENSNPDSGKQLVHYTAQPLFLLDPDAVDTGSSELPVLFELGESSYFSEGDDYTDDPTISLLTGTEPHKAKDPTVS

[20] = HEp-2 cell cytotoxicity, dose response, cytotoxicity control for RSV inhibitor project, HTS (AID 2410); format: functional; conditions: human respiratory syncytial virus
[21] = cytotoxicity in HEK-293T cells, dose response, cytotoxicity control for TCR NF-kB inhibitor project, luminescence, T-cell screen hits (AID 489026); format: functional, cell-based;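 also: cells exposed to compound about 14 hours before the viability readout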

Chain of Paired box protein Pax-8 (Q06710 whole entry): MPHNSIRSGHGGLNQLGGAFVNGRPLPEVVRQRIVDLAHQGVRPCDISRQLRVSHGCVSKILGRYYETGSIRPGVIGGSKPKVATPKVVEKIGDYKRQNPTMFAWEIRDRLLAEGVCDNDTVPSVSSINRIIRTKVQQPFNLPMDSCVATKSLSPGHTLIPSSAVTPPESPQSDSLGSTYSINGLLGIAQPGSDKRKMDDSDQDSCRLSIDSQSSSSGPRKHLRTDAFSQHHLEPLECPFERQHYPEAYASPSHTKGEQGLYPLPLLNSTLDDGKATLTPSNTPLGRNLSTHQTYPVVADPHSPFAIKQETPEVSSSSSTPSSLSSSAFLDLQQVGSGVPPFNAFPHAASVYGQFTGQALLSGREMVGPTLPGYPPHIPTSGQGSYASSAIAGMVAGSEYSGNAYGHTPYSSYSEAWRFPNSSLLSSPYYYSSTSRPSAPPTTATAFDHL

## CN(CCNC(=O)C1CCN(c2ncnc3c2nc2n3CCCCC2)CC1)Cc1ccccc1
[1]
  IC50: 3.44 µM (active)
[2]
  IC50: 2.98 µM (active)
[3]
  IC50: > 20 µM (inactive)

## COc1ccccc1NC(=O)CSc1nnc(-c2ccoc2C)n1CCc1ccccc1
[1]
  IC50: 9.91 µM (active)
[2]
  IC50: 8.82 µM (active)
[3]
  IC50: > 20 µM (inactive)

## CCCOc1ccc(C(=O)Nn2c(C)nc3ccccc3c2=O)cc1
[1]
  IC50: 1.54 µM (active)
[2]
  IC50: 1.32 µM (active)
[3]
  IC50: > 20 µM (inactive)

## NNC(=O)c1cc2ccccc2cc1O
[4]
  AC50: 24 µM (active)
[5]
  IC50: > 79 µM (inactive)

## COc1ccc(C2CC(c3cccs3)=NN2C(=O)CCl)cc1OC (stereo not given)
[6]
  EC50: 2.64 µM (active)
[7]
  CC50: 3.51 µM (active)
[8]
  EC50: 2.21 µM (active)
[9]
  EC50: 1.41 µM (active)
[10]
  EC50: 6.92 µM (active)
[11]
  AC50: 8.43 µM (active)
[12]
  EC50: 6.05 µM (inconclusive)
[13]
  EC50: 0.834 µM (active)
[14]
  IC50: > 25 µM (active)
[15]
  EC50: 5.26 µM (inconclusive)

## CCOC(=O)c1c(NC(=O)COc2ccccc2C#N)sc2c1CC(C)(C)NC2(C)C
[1]
  IC50: 5.94 µM (active)
[2]
  IC50: 4.91 µM (active)
[3]
  IC50: > 20 µM (inactive)

## O=[N+]([O-])c1cccc(/C(O)=C(/C([S-])=Nc2cccc3ccccc23)[n+]2ccccc2)c1
[14]
  IC50: > 25 µM (active)

## COc1ccc(F)cc1CN1CCN(C(=O)CCC(=O)Nc2nnc(CC(C)C)s2)CC1
[16]
  EC50: > 133 µM (inactive)
[10]
  EC50: > 150 µM (not active)
[12]
  EC50: > 150 µM (inconclusive)
[13]
  EC50: > 150 µM (not active)
[15]
  EC50: > 150 µM (inconclusive)

## O=C(Nc1ccccc1)NN(C(=O)CCl)c1ccccc1
[17]
  AC50: 3.11 µM (active)
[9]
  EC50: 0.861 µM (active)
[18]
  AC50: 4.57 µM (active)
[11]
  AC50: 13.7 µM (active)
[4]
  AC50: 8.5 µM (active)

## CC(C)N=C(S)N=Nc1c(O)[nH]c2ccc(C(C)C)cc12
[1]
  IC50: 19.2 µM (active)
[6]
  EC50: 11 µM (active)
[2]
  IC50: 3.56 µM (active)
[8]
  EC50: 2.06 µM (active)
[3]
  IC50: > 20 µM (inactive)

## Cc1cccc(NC(=S)N=Nc2c(O)[nH]c3ccccc23)c1
[1]
  IC50: 15 µM (active)
[6]
  EC50: 4.49 µM (active)
[2]
  IC50: 0.594 µM (active)
[19]
  EC50: 8.45 µM (active)
[8]
  EC50: 1.53 µM (active)
[3]
  IC50: > 20 µM (inactive)

## O=C(COC(=O)c1ccc(F)c([N+](=O)[O-])c1)NC(=O)NCc1ccccc1
[4]
  AC50: 13.6 µM (active)

## Cc1cccc(-n2c(C)cc(/C=N\NC(=O)c3cccs3)c2C)c1
[7]
  CC50: > 25 µM (active)
[20]
  CC50: 23.4 µM (active)
[14]
  IC50: 14.7 µM (active)

## C[C@]12CC[C@H](O)C[C@H]1CC[C@@H]1[C@@H]2C[C@@H](O)[C@]2(C)[C@@H](C3=CC(=O)OC3)CC[C@]12O [DIGOXIGENIN]
[17]
  AC50: 1.16 µM (active)
[7]
  CC50: 2.1 µM (active)
[18]
  AC50: 2.35 µM (active)
[21]
  IC50: > 80 µM (inactive)
[14]
  IC50: < 0.05 µM (active)
